Ends that are not written are not given here.
What was measured:
[1] = tested on: SUM149PT cells overexpressing the EN1 cDNA (SUM149PT-EN1); experiment: Cell Titer Glo cell viability assay in SUM149PT cells overexpressing the EN1 cDNA; format: cell-based, human; settings: iPep624 72 hours
Experimental: In the neural system it has been proposed that EN1 protects neurons from mitochondrial complex I insults. Likewise, the inventors investigated whether EN1 could play a similar role in the basal-like breast cancer cell lines. The EN1 cDNA was overexpressed in SUM149PT cells using a lentiviral vector, and the transduced cells were treated with increasing concentrations of rotenone, a mitochondrial complex I toxin, and taxol, a […].
Plasmids expressing the EN1 cDNA (Genecopoeia, vector EX-T1021-Lv07) or EN1 shRNAs (Open Biosystems, pLKO-EN1) were transfected with Gagpol-, VSVG-, and RSV-REV-coding plasmids in HEK 293T cells using Lipofectamine and Plus Reagent cationic lipids (Invitrogen, Carlsbad, Calif.) and transduction of breast cells was performed as described in Beltran, A. S. et al. Breast Cancer Res 13, R94 (2011).
All peptides were synthetized at the UNC High-Throughput Peptide Synthesis and Array Facility at UNC. Taxol, Rotenone and Halofuginone (Sigma-Aldrich, St Louis, Mo.) were dissolved in DMSO. A total of […] or 1×10^3 breast cells for peptide and drug treatment respectively, were seeded in 96-well plates. Cells were exposed for 8 hours to the peptide and 48 to 72 hours for drug treatment. The cell viability after peptide/drug treatment was assayed with the Cell Titer Glo (CTG) assay (Promega, Madison, Wis., USA).

[2] = tested on: mRNA levels of COLA1, COLA2, S1004A and DDIT3 (CHOP); experiment: Real time PCR of downstream effectors of EPRS in SUM149PT cells; format: cell-based, human
Excerpt: FIG. 6 EN1-Ipeps binds the endogenous Glutamyl-Prolyl tRNA synthetase (EPRS) target and regulates downstream EPRS effectors in breast cancer cells. (a) EN1-iPep624 (SEQ ID NO: 5) captures and binds EPRS from total extracts of SUM149-PT cells. Affinity-capture immunoprecipitation and western blot detection of EPRS using biotinylated iPeps as bait, and total extracts of SUM149-PT cells. Same input loading of extract is shown in the SDS-PAGE gel on the left. […] The immunoprecipitations were done at least three times and averages and standard errors between experiments are indicated (p<0.01*, p<0.001**). (b) Full length EN1 binds the endogenous EPRS in MDA-MB-231 and SUM149PT cells. Total extracts of MDA-MB-231 and SUM149PT expressing either a full length EN1 cDNA engineered with a N-terminal FLAG tag or an empty-vector control were processed by immunoprecipitation with an anti-FLAG antibody. Immunoprecipitated complexes were blotted with an EPRS-specific antibody to detect endogenous EPRS. The same amount of loaded extracts (INPUT) is shown with anti-tubulin as endogenous control. The enrichment of the immunoprecipitated products was determined by quantification of the bands by densitometry as described above, and data was normalized to iPep624ΔHEX (SEQ ID NO: 18) control. […] Cell viability was determined by a Cell Titer Glo assay and IC50 concentrations determined as described in FIG. 5. […]

KKKRKVTDSQQPLVWPAWVYCTRYSDRPS [iPep624]
cell viability defect after ectopic transfection of the EN1 cDNA [1]: rescued | DDIT3 mRNA in EN1-overexpressing cells ([2]; 15 μM active iPep over control): significantly up-regulated | up-regulation of COLA1, COLA2 and S1004A mRNA in EN1-overexpressing cells ([2]; 15 μM active peptide): significantly reverted

Source: patent US10201610B2, “Interference peptides and use thereof” (The University of Western Australia, priority 2014, dated 2019)
